We go through 1 molecule from paper PMC12196264, “Design and Synthesis of Pyridine-Based Pyrrolo[2,3-d]pyrimidine Analogs as CSF1R Inhibitors: Molecular Hybridization and Scaffold Hopping Approach” (Pharmaceuticals, 2025).

Series [1] in a line: Microsomal stability, mouse liver microsomes. The format is in vitro ADME. As to conditions: mouse liver microsome. As for the experimental part:
The aqueous solubility of the compounds and metabolic stability under oxidative conditions was performed as described previously.

Series [2] deals with CSF1R (Homo sapiens, UniProt P07333). The series is described as follows: CSF1R enzymatic inhibitory assay (TR-FRET LANCE Ultra). It counts as biochemical. Conditions: single eight-point titrations, ATP 25 μM, R^2 of fit in parentheses. The protocol: The TR-FRET-based LANCE Ultra assay (Perkin Elmer, Waltham, MA, USA) was used to determine IC50 values for various CSF1R inhibitors. Kinase activity and inhibition in this assay was measured as previously reported. Scigilian Analyze software version 5.8.5.15 (Scigilian, Montreal, QC, Canada) was used.
In general terms: TR-FRET usually uses a lanthanide donor and a delayed reading to cut background.

Series [3] addresses NEK1 (Homo sapiens, UniProt Q96PY6). The series is described as follows: Kinase panel. It counts as biochemical. The protocol: (§1) Ta b l e S 1. Inhibition (%) by compound 14c towards di7erent kinases. Values are average of two
(§2) measurements at 1000 nM test concentration. The ATP concentration was equal to KM.
(§3) Kinase ATP conc. % inhibition

Series [4] concerns the target CAMK1D (Homo sapiens, UniProt Q8IU85). Put plainly: Kinase panel. It counts as biochemical. The protocol: as §1, §2, §3
The target of series [5] is ALK (Homo sapiens, UniProt Q9UM73). Put plainly: Kinase panel. The format is biochemical. The protocol: as §1, §2, §3
Series [6] has as its target RET (Homo sapiens, UniProt P07949). Put plainly: Kinase panel. It counts as biochemical. The protocol: as §1, §2, §3
For series [7], the target named is MUSK (Homo sapiens, UniProt O15146). The series is described as follows: Kinase panel. The format is biochemical. The protocol:
as §1, §2, §3

The target of series [8] is GSK3B (Homo sapiens, UniProt P49841). Put plainly: Kinase panel. It counts as biochemical. As for the experimental part:
as §1, §2, §3

In series [9] the target is AKT1 (Homo sapiens, UniProt P31749). Put plainly: Kinase panel. The format is biochemical. As for the experimental part: as §1, §2, §3
Series [10] has as its target FER (Homo sapiens, UniProt P16591). Put plainly: Kinase panel. The format is biochemical. As for the experimental part:
as §1, §2, §3

Series [11] has as its target YES1 (Homo sapiens, UniProt P07947). The series is described as follows: Kinase panel. It counts as biochemical. As for the experimental part:
as §1, §2, §3

The target of series [12] is KIT (Homo sapiens, UniProt P10721). The series is described as follows: Kinase panel. The format is biochemical. As for the experimental part: as §1, §2, §3
For series [13], the target named is ROCK1 (Homo sapiens, UniProt Q13464). Put plainly: Kinase panel. The format is biochemical. The protocol:
as §1, §2, §3

The target of series [14] is MINK1 (Homo sapiens, UniProt Q8N4C8). The series is described as follows: Kinase panel. The format is biochemical. The protocol:
as §1, §2, §3

For series [15], the target named is FGFR1 (Homo sapiens, UniProt P11362). The series is described as follows: Kinase panel. It counts as biochemical. As for the experimental part: as §1, §2, §3
Series [16] concerns the target MKNK1 (Homo sapiens, UniProt Q9BUB5). The series is described as follows: Kinase panel. It counts as biochemical. The protocol: as §1, §2, §3
In series [17] the target is SRC (Homo sapiens, UniProt P12931). The series is described as follows: Kinase panel. It counts as biochemical. As for the experimental part: as §1, §2, §3
The target in series [18] is JAK2 (Homo sapiens, UniProt O60674). The series is described as follows: Kinase panel. The format is biochemical. As for the experimental part: as §1, §2, §3
The subject of series [19] is Ba/F3 cells engineered to be dependent on CSF1R but added additional IL-3. Put plainly: Cell viability assay with Ba/F3-hCSF1R cells with added IL-3. The format is cell-based. As to conditions: Mus musculus, BaF3; Ba/F3 CSF1R cells with additional IL-3; read-out: Cellular Assay IC50 (μM), Ba/F3 IL-3. As for the experimental part:
(§4) Given the promising enzymatic activity of the synthesized derivatives, cellular assays were performed using Ba/F3 cells engineered to depend on constitutively active CSF1R. […] We have also previously observed a low correlation between enzymatic and cellular activities, which may arise from the enzymatic protein construct not accurately mimicking the active conformation of CSF1R in a cellular context.
(§5) Performed as reported previously.

In series [20] the test system is Ba/F3 cells engineered to be dependent on CSF1R. Put plainly: Cell viability assay with Ba/F3-hCSF1R cells. It counts as cell-based. As for the experimental part:
as §4, §5

The nature of series [21]: MDCK permeability assay. It counts as in vitro ADME, canine. Conditions: dog, MDCK monolayer. The protocol:
Six selected compounds were assessed for metabolic stability (clearance) in mouse liver microsomes (MLM) and human liver microsomes (HLM), and apparent permeability (Papp) using a MDCK permeability assay. […] Although currently limited by solubility and permeability, its metabolic profile provides a starting point for targeted structural modifications aimed at overcoming these challenges.

Sequence of NEK1 (Q96PY6 whole entry, species assumed): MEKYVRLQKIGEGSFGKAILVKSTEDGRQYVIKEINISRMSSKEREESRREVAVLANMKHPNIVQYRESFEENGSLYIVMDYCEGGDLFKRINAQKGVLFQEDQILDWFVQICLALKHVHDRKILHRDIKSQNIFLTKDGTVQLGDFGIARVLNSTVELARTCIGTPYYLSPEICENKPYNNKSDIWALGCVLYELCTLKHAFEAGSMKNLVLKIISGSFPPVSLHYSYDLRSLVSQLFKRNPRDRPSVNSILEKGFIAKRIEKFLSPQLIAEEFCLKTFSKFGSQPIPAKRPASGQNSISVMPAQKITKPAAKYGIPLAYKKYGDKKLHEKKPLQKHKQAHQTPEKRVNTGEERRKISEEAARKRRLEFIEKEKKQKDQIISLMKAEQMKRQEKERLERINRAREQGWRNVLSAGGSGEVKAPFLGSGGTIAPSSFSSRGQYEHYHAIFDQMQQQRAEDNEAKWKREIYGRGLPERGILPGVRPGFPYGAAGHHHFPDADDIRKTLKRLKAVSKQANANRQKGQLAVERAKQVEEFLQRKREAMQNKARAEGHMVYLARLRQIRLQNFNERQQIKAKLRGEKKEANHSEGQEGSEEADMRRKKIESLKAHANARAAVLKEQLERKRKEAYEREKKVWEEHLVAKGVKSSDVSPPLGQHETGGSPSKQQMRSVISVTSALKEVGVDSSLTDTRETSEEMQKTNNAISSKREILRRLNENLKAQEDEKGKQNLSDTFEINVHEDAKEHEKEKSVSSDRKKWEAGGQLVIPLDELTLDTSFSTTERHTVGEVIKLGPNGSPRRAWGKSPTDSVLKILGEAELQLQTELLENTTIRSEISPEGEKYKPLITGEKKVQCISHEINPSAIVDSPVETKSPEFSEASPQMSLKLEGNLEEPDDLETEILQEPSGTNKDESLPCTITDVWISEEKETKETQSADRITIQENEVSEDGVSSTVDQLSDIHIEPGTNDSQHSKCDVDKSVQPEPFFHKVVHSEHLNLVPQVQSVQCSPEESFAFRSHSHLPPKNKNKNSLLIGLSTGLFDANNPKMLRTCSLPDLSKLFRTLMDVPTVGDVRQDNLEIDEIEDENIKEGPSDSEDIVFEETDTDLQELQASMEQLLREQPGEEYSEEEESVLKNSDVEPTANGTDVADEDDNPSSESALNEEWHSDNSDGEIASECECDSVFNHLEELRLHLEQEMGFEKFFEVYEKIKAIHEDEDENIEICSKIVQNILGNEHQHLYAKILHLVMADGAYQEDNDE
Sequence of JAK2 (O60674 whole entry, species assumed): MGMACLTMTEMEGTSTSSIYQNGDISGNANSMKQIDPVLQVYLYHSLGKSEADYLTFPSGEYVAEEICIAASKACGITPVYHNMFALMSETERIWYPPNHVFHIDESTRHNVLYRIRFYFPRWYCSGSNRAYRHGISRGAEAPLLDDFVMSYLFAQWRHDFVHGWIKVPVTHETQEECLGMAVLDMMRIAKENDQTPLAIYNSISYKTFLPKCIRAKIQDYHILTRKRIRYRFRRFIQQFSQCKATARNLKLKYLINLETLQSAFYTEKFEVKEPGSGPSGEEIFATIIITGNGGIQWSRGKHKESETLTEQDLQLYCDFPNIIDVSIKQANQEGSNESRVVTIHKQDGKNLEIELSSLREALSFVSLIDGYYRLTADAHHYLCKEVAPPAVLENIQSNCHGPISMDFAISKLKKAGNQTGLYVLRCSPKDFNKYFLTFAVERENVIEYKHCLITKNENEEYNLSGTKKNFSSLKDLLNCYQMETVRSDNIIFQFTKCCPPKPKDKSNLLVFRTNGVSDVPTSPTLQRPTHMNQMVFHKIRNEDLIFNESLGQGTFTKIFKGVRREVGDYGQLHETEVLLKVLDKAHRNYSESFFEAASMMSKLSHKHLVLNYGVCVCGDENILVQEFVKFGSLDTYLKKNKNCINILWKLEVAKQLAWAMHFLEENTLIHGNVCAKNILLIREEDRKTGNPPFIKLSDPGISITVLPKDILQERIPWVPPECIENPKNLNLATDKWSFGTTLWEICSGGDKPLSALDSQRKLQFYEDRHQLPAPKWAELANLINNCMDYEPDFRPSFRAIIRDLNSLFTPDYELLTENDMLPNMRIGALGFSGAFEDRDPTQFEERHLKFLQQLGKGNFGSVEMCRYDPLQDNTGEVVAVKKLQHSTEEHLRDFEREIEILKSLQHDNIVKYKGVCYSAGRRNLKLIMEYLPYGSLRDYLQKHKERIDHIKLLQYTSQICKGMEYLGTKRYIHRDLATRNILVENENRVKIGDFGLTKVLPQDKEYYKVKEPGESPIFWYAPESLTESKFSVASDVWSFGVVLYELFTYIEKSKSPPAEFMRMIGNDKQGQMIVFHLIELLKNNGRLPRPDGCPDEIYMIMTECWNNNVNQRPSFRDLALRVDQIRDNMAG
Sequence of GSK3B (P49841 whole entry, species assumed): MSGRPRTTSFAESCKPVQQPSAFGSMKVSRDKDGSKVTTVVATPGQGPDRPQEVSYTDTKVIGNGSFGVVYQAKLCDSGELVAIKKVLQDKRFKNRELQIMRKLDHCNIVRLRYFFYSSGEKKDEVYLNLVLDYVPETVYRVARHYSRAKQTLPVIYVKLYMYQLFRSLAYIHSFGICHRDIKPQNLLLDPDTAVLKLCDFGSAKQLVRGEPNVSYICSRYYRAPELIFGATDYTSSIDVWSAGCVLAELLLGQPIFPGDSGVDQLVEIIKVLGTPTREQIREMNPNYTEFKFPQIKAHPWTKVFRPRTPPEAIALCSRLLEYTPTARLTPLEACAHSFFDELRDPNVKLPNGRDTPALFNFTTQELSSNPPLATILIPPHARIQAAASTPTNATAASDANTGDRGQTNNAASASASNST
Sequence of FER (P16591 whole entry, species assumed): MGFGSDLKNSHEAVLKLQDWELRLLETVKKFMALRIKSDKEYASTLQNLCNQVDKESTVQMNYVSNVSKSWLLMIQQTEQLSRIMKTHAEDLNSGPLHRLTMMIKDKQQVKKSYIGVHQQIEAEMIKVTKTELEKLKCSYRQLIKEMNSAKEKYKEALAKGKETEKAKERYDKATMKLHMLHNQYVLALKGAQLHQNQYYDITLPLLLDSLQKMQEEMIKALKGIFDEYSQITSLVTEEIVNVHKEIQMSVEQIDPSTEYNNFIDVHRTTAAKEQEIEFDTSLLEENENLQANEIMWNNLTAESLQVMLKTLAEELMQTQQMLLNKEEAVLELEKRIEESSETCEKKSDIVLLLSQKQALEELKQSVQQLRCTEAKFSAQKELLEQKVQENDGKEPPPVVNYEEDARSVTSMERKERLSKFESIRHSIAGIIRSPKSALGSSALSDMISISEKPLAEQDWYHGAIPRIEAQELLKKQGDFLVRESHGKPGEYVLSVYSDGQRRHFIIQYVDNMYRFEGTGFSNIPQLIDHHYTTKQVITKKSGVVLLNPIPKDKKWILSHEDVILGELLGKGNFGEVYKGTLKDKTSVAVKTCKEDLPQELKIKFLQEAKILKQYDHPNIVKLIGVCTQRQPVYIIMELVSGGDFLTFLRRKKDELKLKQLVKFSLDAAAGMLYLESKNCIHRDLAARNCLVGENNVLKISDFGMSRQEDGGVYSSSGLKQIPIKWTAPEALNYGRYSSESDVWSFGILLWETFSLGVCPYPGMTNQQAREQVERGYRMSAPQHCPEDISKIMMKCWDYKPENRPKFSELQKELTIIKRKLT
Sequence of FGFR1 (P11362 22-822, species assumed): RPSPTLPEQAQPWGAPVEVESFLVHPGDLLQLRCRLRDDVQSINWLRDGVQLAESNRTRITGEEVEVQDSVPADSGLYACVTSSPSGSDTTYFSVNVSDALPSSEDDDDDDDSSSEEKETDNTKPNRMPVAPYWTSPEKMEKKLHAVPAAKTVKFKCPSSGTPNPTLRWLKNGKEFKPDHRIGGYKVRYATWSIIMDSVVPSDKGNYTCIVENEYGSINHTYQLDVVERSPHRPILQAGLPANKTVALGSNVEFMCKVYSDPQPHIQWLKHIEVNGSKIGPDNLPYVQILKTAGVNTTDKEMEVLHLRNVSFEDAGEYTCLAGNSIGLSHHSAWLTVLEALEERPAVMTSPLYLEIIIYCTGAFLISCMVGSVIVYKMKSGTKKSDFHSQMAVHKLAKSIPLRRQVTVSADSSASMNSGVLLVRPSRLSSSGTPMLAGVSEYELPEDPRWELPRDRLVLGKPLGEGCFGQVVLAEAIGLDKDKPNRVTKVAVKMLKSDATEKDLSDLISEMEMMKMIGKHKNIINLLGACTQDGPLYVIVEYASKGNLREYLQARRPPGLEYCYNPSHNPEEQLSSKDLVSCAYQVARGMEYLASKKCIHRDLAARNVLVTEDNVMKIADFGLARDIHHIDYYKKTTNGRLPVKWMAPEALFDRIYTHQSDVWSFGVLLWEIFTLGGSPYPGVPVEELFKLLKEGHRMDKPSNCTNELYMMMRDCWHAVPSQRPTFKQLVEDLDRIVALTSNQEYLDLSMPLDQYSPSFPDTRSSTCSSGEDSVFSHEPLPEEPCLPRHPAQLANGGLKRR
Sequence of AKT1 (P31749 whole entry, species assumed): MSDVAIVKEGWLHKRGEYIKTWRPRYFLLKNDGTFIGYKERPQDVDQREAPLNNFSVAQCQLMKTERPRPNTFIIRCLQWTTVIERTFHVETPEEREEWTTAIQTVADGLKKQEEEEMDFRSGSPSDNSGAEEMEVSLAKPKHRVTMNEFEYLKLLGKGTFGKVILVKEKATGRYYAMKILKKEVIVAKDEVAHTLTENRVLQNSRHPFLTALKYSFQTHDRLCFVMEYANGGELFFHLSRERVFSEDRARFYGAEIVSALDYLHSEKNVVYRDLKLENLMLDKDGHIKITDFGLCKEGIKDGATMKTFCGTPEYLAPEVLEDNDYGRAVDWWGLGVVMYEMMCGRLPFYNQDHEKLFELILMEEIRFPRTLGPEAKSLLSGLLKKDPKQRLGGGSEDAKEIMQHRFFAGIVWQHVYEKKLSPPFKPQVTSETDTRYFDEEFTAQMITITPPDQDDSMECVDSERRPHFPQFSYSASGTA

Broadly, the inhibition is the relative decrease from the control value, in per cent. What is called Papp A→B is how fast a substance crosses the layer from the apical side. A low value points to poor permeation. The term Papp B→A denotes how fast a substance crosses the layer from the basolateral side. For `Cc1cccc(CN(C)c2ncnc3[nH]c(-c4ccc(NCc5ccc(C(F)(F)F)nc5)nc4)cc23)c1` [Compound 14c, N-Methyl-N-(3-methylbenzyl)-6-(6-(((6-(trifluoromethyl)pyridin-3-yl)methyl)amino)pyridin-3-yl)-7H-pyrrolo[2,3-d]pyrimidin-4-amine], the “MLM in vitro intrinsic clearing” value in series [1] was found to be 60.5 µL/min/mg. The IC50 in [2] is 0.00718 µM; in series [19], over 10 µM; in series [20] (Mus musculus, BaF3, Ba/F3 cells dependent on CSF1R, with standard deviation, read-out: Cellular Assay IC50 (μM), Ba/F3 CSF1R), over 10 µM. Moreover, the inhibition at 1 µM in [3] came to 16%; in series [4], 8%; in series [5], 11%; in series [6], 14%; in series [7], 19%; in series [8], 11%. Further, the inhibition at 1 µM in series [9] is 2%; in series [10] it was 6%; in [11], 65%; in series [12] it was 18%; in series [13], -1%; in series [14], 69%. Also, the inhibition at 1 µM worked out at 3% in series [15], 1% in [16], 43% in [17] and 4% in [18]. In addition, the “Cellular activity in Ba/F3 CSF1R cells (in words)” value in series [20] (Ba/F3 cells dependent on constitutively active CSF1R) was “completely inactive in cells”. The same molecule had a Papp A→B in series [21] (A–B direction) of 5.4 ×10⁻⁶ cm/s. Also, in [21] (B–A direction), the Papp B→A turned out to be 0.8 ×10⁻⁶ cm/s. The efflux ratio in series [21] (read-out: MDCK Ratio (Papp B–A/A–B)) is 0.14.
